Measurements taken from PMC7140380, “Magnolia extract is effective for the chemoprevention of oral cancer through its ability to inhibit mitochondrial respiration at complex I” (Cell Communication and Signaling : CCS, 2020).
Read-outs that look alike come from different tables or passages of the source.

Assays:
[1] = test system: CAL 27 cells; experiment: Cell proliferation assay (IncuCyte real-time cell confluence); type: cell-based; details: Homo sapiens
Experimental: Cells were seeded in 96-well tissue culture plates at 1000–3000 cells per well. Twenty-four hours after seeding, cells were exposed to various concentrations of ME, whereas control cells received fresh medium with an equivalent amount of dimethyl sulfoxide (DMSO) vehicle. Plates were incubated at 37 °C under 5% CO2 and monitored using the IncuCyte Live Cell analysis system (Essen Bioscience, Ann Arbor, MI). […] All assays were performed in triplicate or quadruplicate.

[2] = test system: STAT3; experiment: Western blot, STAT3 phosphorylation in CAL 27 cells; type: cell-based, human; details: single agents at concentrations close to their IC50 (HNK 20 μM, MGN 40 μM, MHNK 20 μM)
Experimental: (§1) CAL 27 cells were treated with vehicle control (DMSO), HNK (20 μM), MGN (40 μM), and MHNK (20 μM) for 4 h and then lysed with a lysis buffer containing a proteinase inhibitor cocktail (Cell Signaling Technology, Danvers, MA), sheared 10 times by passage through a 28-gauge needle, and centrifuged at 16,000 g for 30 min; the protein concentration of the supernatant was determined by the Bradford method. Lysates, normalized for equal protein loading, were analyzed by the PathScan RTK Signaling Array (Cell Signaling Technology, Danvers, MA) and the LI-COR Odyssey infrared imaging system (LI-COR Biosciences-Biotechnology, Lincoln, NE).
(§2) Cells were lysed with RIPA buffer containing a proteinase inhibitor cocktail (Fisher Scientific, Pittsburg, PA), sheared 10 times by passage through a 28-gauge needle, and centrifuged at 16,000 g for 30 min; the supernatants were normalized for protein concentration as determined by the Bradford method. Lysates were boiled for 5 min and resolved on 4–12% sodium dodecyl sulfate polyacrylamide gel electrophoresis (SDS-PAGE) gels (Invitrogen, Carlsbad, CA). The blots were probed with the following primary antibodies from Cell Signaling Technology (Danvers, MA): p-STAT3-Tyr705, p-STAT3-Ser727, HKII, P70, and P70S6K. The following antibodies were from Santa Cruz Biotechnology (Dallas, TX): anti-actin, anti-Prx1 and anti-Prx3.

[3] = test system: p70S6K; experiment: Western blot, p70S6K phosphorylation in CAL 27 cells; type: cell-based, human; details: single agents at concentrations close to their IC50 (HNK 20 μM, MGN 40 μM, MHNK 20 μM)
Experimental: as §1, §2

[4] = test system: hexokinase II (HKII); experiment: Western blot, HKII levels in CAL 27 cells; type: cell-based, human; details: single agents at concentrations close to their IC50 (HNK 20 μM, MGN 40 μM, MHNK 20 μM)
Experimental: as §1, §2

[5] = test system: 4NQO-induced oral cancer; experiment: 4NQO-induced oral carcinogenesis in C57BL/6 J mice; type: in vivo; details: 20 mg/kg oral
Experimental: Oral tumors were induced by exposing mice to 4NQO at a dose of 50 μg/mL in drinking water for 16 consecutive weeks. One week following the first dose of 4NQO, mice were given ME or the individual active components in ME via oral administration (five days/week for the next 20 consecutive weeks). Animal body weights and 4NQO-water consumption were monitored weekly. 21 weeks after the start of 4NQO treatment, mice were imaged by MRI. Mice were euthanized and oral tissues were collected to assess total oral tumor volume (sum of V) for each mouse. A portion of normal appearing tissue and oral tumor from each mouse were flash frozen in liquid nitrogen for molecular analysis. Remaining oral tissues were embedded in paraffin for pathologic analysis as previously described and for immunohistochemistry (IHC) analysis of biomarkers. In addition, the oral cavity, esophagus, stomach/forestomach, lung, and other major organs were examined carefully for any signs of abnormality.
Mice were imaged using a 9.4 T MRI (Bruker, Billerica, MA) with a custom birdcage style Quadrature coil (Doty Scientific, Columbia, SC). Mice were anesthetized (2 min) initially in a chamber using a mixture of oxygen (3 L/min) and isofluorane (4%). Once an animal was fully anesthetized, optical lubricant was placed on each eye to prevent drying. […]

[6] = CAL-27, read-out: IC50 as single agents, cell proliferation

## C=CCc1ccc(O)c(-c2ccc(O)c(CC=C)c2)c1 [HNK, 5,3′-diallyl-2,4′-dihydroxybiphenyl]
[1]; CAL 27 cells, single agents, read-out: IC50 as single agents, cell proliferation
  IC50: 19 µM
[2]
  phosphorylation of STAT3 (p-STAT3 Ser727): inhibited

## C=CCc1ccc(O)c(-c2cc(CC=C)ccc2O)c1 [MGN, 5,5′-diallyl-2,2′-dihydroxybiphenyl]
[1]; [6]
  IC50: 49 µM
[3]
  phosphorylation of p70S6K: inhibited

## C=CCc1ccc(O)c(-c2ccc(OC)c(CC=C)c2)c1 [MHNK, 3,5′-diallyl-2′-hydroxy-4-methoxybiphenyl]
[1]; [6]
  IC50: 19 µM
[4]
  levels of hexokinase II (HKII): decreased
[5]
  suppression of 4NQO-induced oral tumors as sole agent, compared with the other single agents: greatest effect
